The values that follow come from patent US20250381165A1, “Method of Use for Benzofuran Compounds” (Tampa Bay Research Institute, Inc., priority 2024, published 2025).

By IC50 is commonly meant the concentration that gives 50% inhibition.

Data set [1] concerns IMG. Put plainly: CellTiter-Glo cell viability, IMG. The data set is classed as cell-based, murine. To be noted: Mus musculus. How it is done: (§1) BzFβ was then examined for its effect on the viability of several murine and human cell lines and primary murine splenocytes. The cytotoxicity of BzFβ was assessed using the CellTiter-Glo […] assay system according to manufacturer's instructions to determine BzFβ's effect on the viability of several murine and human cell lines and primary murine splenocytes.
(§2) DC2.4 cell line (Dr. Kenneth Rock, University of Massachusetts), RAW 264.7 cell line (American Type Culture Collection (ATCC), Manassas, VA; TIB 71), and IMG cell line (Millipore™, Merck KGaA, Burlington, MA; cat. no. SC-C134) were each cultured in complete Dulbecco's Modified Eagle Medium (cDMEM) containing […] glucose (Gibco™, Thermo Fisher Scientific Inc., Waltham, MA; cat. no. 10566-016) and supplemented with GlutaMAX, 50 U/mL penicillin and 50 µg/mL streptomycin (Gibco™; cat. no. 15070-063) and 10% heat inactivated fetal bovine serum (FBS) (R&D Systems, Inc., Minneapolis, MN; cat. no. […]
(§3) The cytotoxicity of BzFβ was assessed using the CellTiter-Glo cell […] viability assay system […] cat. no. […] CellTiter-Glo was added 1:1 in the media and the level of chemiluminescence was measured using luminescence at wavelengths of 200 nm to 700 nm through a photomultiplier on BioTek's Synergy HTX multimode microplate reader. […]
Background: Cellular ATP, detected with luciferase, serves as a proxy for viable cell number.

Data set [2] relates to DC2.4. Briefly: CellTiter-Glo cell viability, DC2.4. In kind it is cell-based, murine. More on the design: effect on cell viability: unit of the concentration uncertain. How it is done: as §1, §2, §3
Data set [3] deals with CD45+/MHC II/CD11c+ splenocytes. Briefly: In vivo SIINFEKL loading, flow cytometry of splenocytes. The arrangement: species or system C57BL/6NCrl mice. To be noted: CD45+/MHC II/CD11c+ population. How it is done:
Since the oral route of drug delivery is preferred, various doses of BzFβ (1, 2, 4 mg) were administered by oral gavage, immediately following an iv injection of 50 μg SIINFEKL peptide. One-hour post-treatment the blood and spleens from each mouse was collected. Blood samples were processed as described above. Spleens were collected in 4 mL of Hanks Balanced Salt Solution (HBSS) and converted to a single cell suspension using sterile pouches and a Steward Stomacher 80 Biomaster Blender (Fisher Scientific, cat. no. 14-285-27). The resulting cell suspension was pelleted and suspended in 4 mL freshly prepared red blood cell lysis buffer (150 mM NH4Cl, 10 mM NaHCO3, 0.1 mM EDTA in sterile distilled H2O) for 1-3 minutes. The splenocytes were pelleted and filtered through […] EASY strainer filters (USA Scientific, cat. no. 5654-2070). The cell count was determined using the MUSE cell viability kit (MCH600103) and MUSE Cell Analyzer (Luminex Corp, Austin TX).
For peptide loading, splenocytes were prepared to 5×10^5/mL in cRPMI, then 100 μL of cells was added to wells of clear round-bottom 96 well tissue culture plates. […] Cells were gated based on live single-cell populations and positives were assessed using isotype controls and fluor-minus-one analysis when needed. Data were analyzed using the Attune NxT software or FlowJo versions 10.7 and 10.8.
A general note: In flow cytometry, cells or beads pass a laser one at a time.

For `O=C(O)/C=C/c1ccc2occc2c1` [BzFβ, (2E)-3-(1-benzofuran-5-yl)prop-2-enoic acid], the IC50 in data set [1] turned out to be 316 µM; in data set [2] (Mus musculus, DC2.4, CellTiter-Glo), 1150 µM. Further, in data set [2] (all the cell lines examined, except HEK293T, 24 h exposure, concentrations lower than 50 µg/mL (266 (unit uncertain))), the “effect on cell viability” value is “small effects on cell viability”. Further, the “cells co-expressing MHCI bound SIINFEKL” value in data set [3] was “significantly more of these cells”.
